The source of these data is ChEMBL document CHEMBL4725457, “Novel Bicyclic Heteroaryl Compounds as γ-Secretase Modulators for Treating Alzheimer's Disease” (ACS Med Chem Lett, 2020).

In this assay the target is Gamma-secretase. As to the kind of experiment: Inhibition of human gamma secretase assessed as reduction in Abeta42 production. The format is protein-complex assay.

For `Cc1cc(N2C[C@H]3CC[C@@H](C2)[C@@H]3Nc2nc3n(n2)CCC[C@H]3Oc2cc(F)cc(Cl)c2)ncn1`, the IC50 is 8.1 nM.
Then `Cc1cc(N2C[C@H]3CC[C@@H](C2)[C@@H]3Nc2nc3n(n2)CCC[C@H]3Oc2cccc(Cl)c2)ncn1`, with 9.9 nM.
For `COc1cc(N2C[C@H]3CC[C@@H](C2)[C@@H]3Nc2nc3n(n2)CC[C@H]3Oc2cc(F)cc(Cl)c2)cnn1` the value was 8.1 nM.
As to `Cc1cc(N2C[C@H]3CC[C@@H](C2)[C@@H]3Nc2nc3n(n2)CCC[C@H]3Oc2ccc(Cl)cc2)ncn1`, the IC50 came to 10.3 nM.
Then `COc1cc(N2C[C@H]3CC[C@@H](C2)[C@@H]3Nc2nc3n(n2)CCC[C@H]3Oc2cc(F)cc(Cl)c2)cnn1`, with 6.3 nM; and `Cc1cc(N2C[C@H]3CC[C@@H](C2)[C@@H]3Nc2nc3n(n2)CCC[C@H]3Oc2cc(Cl)cc(Cl)c2)ncn1`, with 6.6 nM.

By IC50 is commonly meant the concentration needed to halve the response being measured.
